Experimental data from US20250230193A1, “CYCLIC COMPOUND HAVING SELECTIVE KRAS INHIBITORY EFFECT ON HRAS AND NRAS” (CHUGAI SEIYAKU KABUSHIKI KAISHA, priority 2022, published 2025).
Where a SMILES comes first, the peptide text is derived from it. Bridges are numbered along the chain shown (N, C = ends). [ ]: non-standard residue; d: D form. The star is where a group is joined. hPhe(3-Cl-4-CF3) = N[C@@H](CCc1ccc(C(F)(F)F)c(Cl)c1)C(=O)O; NPrPhe(4-CF3) = CCCN[C@@H](Cc1ccc(C(F)(F)F)cc1)C(=O)O; Pro(4-spirocPr) = O=C(O)[C@@H]1CC2(CC2)CN1; Abu(4,4,4-F3) = N[C@@H](CC(F)(F)F)C(=O)O; NMeGly(cPent) = CN[C@H](C(=O)O)C1CCCC1; Gly(cPent) = N[C@H](C(=O)O)C1CCCC1; Gly(cBu) = N[C@H](C(=O)O)C1CCC1; NMeD = CN[C@@H](CC(=O)O)C(=O)O; NMeL = CN[C@@H](CC(C)C)C(=O)O; hPip = O=C(O)[C@@H]1CCCCCN1; Morpholide = C1CN(*)CCO1; Ac5c = NC1(C(=O)O)CCCC1; Aze = O=C(O)[C@@H]1CCN1; Abu = CC[C@H](N)C(=O)O; NPrGly = CCCNCC(=O)O; NEtG = CCNCC(=O)O; Sar = CNCC(=O)O

Legend:
[1] = molecular target: GDP-bound NRAS wild-type protein (Homo sapiens, UniProt P01111); experiment: Binding to NRAS by surface plasmon resonance (SPR), Single Cycle Kinetics; details: KD ratio NRAS/KRAS, SPR
[2] = molecular target: GDP-bound HRAS wild-type protein (Homo sapiens, UniProt P01112); experiment: Binding to HRAS by surface plasmon resonance (SPR), Single Cycle Kinetics; details: KD ratio HRAS/KRAS, SPR
Sequence of GDP-bound HRAS wild-type protein (P01112 whole entry): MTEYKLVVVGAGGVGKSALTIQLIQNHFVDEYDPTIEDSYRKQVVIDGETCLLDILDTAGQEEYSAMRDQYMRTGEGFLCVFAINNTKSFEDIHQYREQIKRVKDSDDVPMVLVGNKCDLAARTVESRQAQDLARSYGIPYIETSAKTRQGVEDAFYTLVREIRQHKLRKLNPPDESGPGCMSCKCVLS

Sequence of GDP-bound NRAS wild-type protein (P01111 whole entry): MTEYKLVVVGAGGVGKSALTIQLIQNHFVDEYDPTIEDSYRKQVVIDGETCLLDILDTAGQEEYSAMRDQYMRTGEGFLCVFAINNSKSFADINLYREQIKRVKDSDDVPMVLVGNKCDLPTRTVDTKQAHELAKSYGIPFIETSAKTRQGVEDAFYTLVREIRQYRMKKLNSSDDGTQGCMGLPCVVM

| SMILES | NRAS/KRAS (ratio of KD for GDP-bound NRAS wild-type to KD for KRAS) [1] | HRAS/KRAS (ratio of KD for GDP-bound HRAS wild-type to KD for KRAS) [2] |
| --- | --- | --- |
| CCCN1C(=O)CN(C)C(=O)CN(CC)C(=O)[C@H]([C@@H](C)CC)NC(=O)[C@H](CC(C)C)N(C)C(=O)C[C@@H](C(=O)N2CCOCC2)N(C)C(=O)[C@H](C2CCCC2)N(C)C(=O)C2(CCCC2)NC(=O)CN(C)C(=O)[C@H](CCc2ccc(C(F)(F)F)c(Cl)c2)NC(=O)CN(C)C(=O)[C@@H]1Cc1ccc(C(F)(F)F)cc1 [PP0300] ([NMeL]I[NEtG][Sar][NPrPhe(4-CF3)][Sar][hPhe(3-Cl-4-CF3)][Sar][Ac5c][NMeGly(cPent)][NMeD]-Morpholide; lactam N-11) | B (a compound having 3 or more and less than 10 is denoted as B) | C (A compound having a KD ratio of 0.1 or more and less than 3 is denoted as C) |
| CCCN1CC(=O)NC2(CCCC2)C(=O)N(C)[C@@H](C2CCCC2)C(=O)N(C)[C@H](C(=O)N2CCOCC2)CC(=O)N(C)[C@@H](CC(C)C)C(=O)N[C@@H]([C@@H](C)CC)C(=O)N(CC)CC(=O)N(C)CC(=O)N(CCC)[C@@H](Cc2ccc(C(F)(F)F)cc2)C(=O)N(C)CC(=O)N[C@@H](CCc2ccc(C(F)(F)F)c(Cl)c2)C1=O [PP0301] ([NMeL]I[NEtG][Sar][NPrPhe(4-CF3)][Sar][hPhe(3-Cl-4-CF3)][NPrGly][Ac5c][NMeGly(cPent)][NMeD]-Morpholide; lactam N-11) | B (a compound having 3 or more and less than 10 is denoted as B) | C (A compound having a KD ratio of 0.1 or more and less than 3 is denoted as C) |
| CCCN1C(=O)CN(C)C(=O)[C@@H]2CCN2C(=O)[C@H]([C@@H](C)CC)NC(=O)[C@@H]2CCCCCN2C(=O)C[C@@H](C(=O)N2CCOCC2)N(C)C(=O)[C@H](C2CCCC2)N(C)C(=O)C2(CCCC2)NC(=O)[C@@H]2CCCN2C(=O)[C@H](CCc2ccc(C(F)(F)F)c(Cl)c2)NC(=O)CN(C)C(=O)[C@@H]1Cc1ccc(C(F)(F)F)cc1 [PP0302] ([hPip]I[Aze][Sar][NPrPhe(4-CF3)][Sar][hPhe(3-Cl-4-CF3)]P[Ac5c][NMeGly(cPent)][NMeD]-Morpholide; lactam N-11) | B (a compound having 3 or more and less than 10 is denoted as B) | C (A compound having a KD ratio of 0.1 or more and less than 3 is denoted as C) |
| CCCN1C(=O)CN(C)C(=O)[C@@H]2CCN2C(=O)[C@H](CC)NC(=O)[C@H](CC(C)C)N(C)C(=O)C[C@@H](C(=O)N2CCOCC2)N(C)C(=O)[C@H](C2CCCC2)N(C)C(=O)C2(CCCC2)NC(=O)[C@@H]2CCCN2C(=O)[C@H](CCc2ccc(C(F)(F)F)c(Cl)c2)NC(=O)CN(C)C(=O)[C@@H]1Cc1ccc(C(F)(F)F)cc1 [PP0303] ([NMeL][Abu][Aze][Sar][NPrPhe(4-CF3)][Sar][hPhe(3-Cl-4-CF3)]P[Ac5c][NMeGly(cPent)][NMeD]-Morpholide; lactam N-11) | B (a compound having 3 or more and less than 10 is denoted as B) | B (a compound having 3 or more and less than 10 is denoted as B) |
| CCCN1C(=O)CN(C)C(=O)[C@@H]2CCN2C(=O)[C@H](CC(F)(F)F)NC(=O)[C@H](CC(C)C)N(C)C(=O)C[C@@H](C(=O)N2CCOCC2)N(C)C(=O)[C@H](C2CCCC2)N(C)C(=O)C2(CCCC2)NC(=O)[C@@H]2CCCN2C(=O)[C@H](CCc2ccc(C(F)(F)F)c(Cl)c2)NC(=O)CN(C)C(=O)[C@@H]1Cc1ccc(C(F)(F)F)cc1 [PP0304] ([NMeL][Abu(4,4,4-F3)][Aze][Sar][NPrPhe(4-CF3)][Sar][hPhe(3-Cl-4-CF3)]P[Ac5c][NMeGly(cPent)][NMeD]-Morpholide; lactam N-11) | B (a compound having 3 or more and less than 10 is denoted as B) | B (a compound having 3 or more and less than 10 is denoted as B) |
| CCCN1C(=O)CN(C)C(=O)[C@@H]2CCN2C(=O)[C@H](C2CCC2)NC(=O)[C@H](CC(C)C)N(C)C(=O)C[C@@H](C(=O)N2CCOCC2)N(C)C(=O)[C@H](C2CCCC2)N(C)C(=O)C2(CCCC2)NC(=O)[C@@H]2CCCN2C(=O)[C@H](CCc2ccc(C(F)(F)F)c(Cl)c2)NC(=O)CN(C)C(=O)[C@@H]1Cc1ccc(C(F)(F)F)cc1 [PP0305] ([NMeL][Gly(cBu)][Aze][Sar][NPrPhe(4-CF3)][Sar][hPhe(3-Cl-4-CF3)]P[Ac5c][NMeGly(cPent)][NMeD]-Morpholide; lactam N-11) | B (a compound having 3 or more and less than 10 is denoted as B) | C (A compound having a KD ratio of 0.1 or more and less than 3 is denoted as C) |
| CCCN1C(=O)CN(C)C(=O)[C@@H]2CCN2C(=O)[C@H](C2CCCC2)NC(=O)[C@H](CC(C)C)N(C)C(=O)C[C@@H](C(=O)N2CCOCC2)N(C)C(=O)[C@H](C2CCCC2)N(C)C(=O)C2(CCCC2)NC(=O)[C@@H]2CCCN2C(=O)[C@H](CCc2ccc(C(F)(F)F)c(Cl)c2)NC(=O)CN(C)C(=O)[C@@H]1Cc1ccc(C(F)(F)F)cc1 [PP0306] ([NMeL][Gly(cPent)][Aze][Sar][NPrPhe(4-CF3)][Sar][hPhe(3-Cl-4-CF3)]P[Ac5c][NMeGly(cPent)][NMeD]-Morpholide; lactam N-11) | B (a compound having 3 or more and less than 10 is denoted as B) | B (a compound having 3 or more and less than 10 is denoted as B) |
| CCCN1C(=O)CN(C)C(=O)[C@@H]2CCN2C(=O)[C@H]([C@@H](C)CC)NC(=O)[C@H](CC(C)C)N(C)C(=O)C[C@@H](C(=O)N2CCOCC2)N(C)C(=O)[C@H](C2CCCC2)N(C)C(=O)C2(CCCC2)NC(=O)[C@@H]2CCN2C(=O)[C@H](CCc2ccc(C(F)(F)F)c(Cl)c2)NC(=O)CN(C)C(=O)[C@@H]1Cc1ccc(C(F)(F)F)cc1 [PP0307] ([NMeL]I[Aze][Sar][NPrPhe(4-CF3)][Sar][hPhe(3-Cl-4-CF3)][Aze][Ac5c][NMeGly(cPent)][NMeD]-Morpholide; lactam N-11) | B (a compound having 3 or more and less than 10 is denoted as B) | B (a compound having 3 or more and less than 10 is denoted as B) |
| CCCN1C(=O)CN(C)C(=O)[C@@H]2CCN2C(=O)[C@H]([C@@H](C)CC)NC(=O)[C@H](CC(C)C)N(C)C(=O)C[C@@H](C(=O)N2CCOCC2)N(C)C(=O)[C@H](C2CCCC2)N(C)C(=O)C2(CCCC2)NC(=O)[C@@H]2CC3(CC3)CN2C(=O)[C@H](CCc2ccc(C(F)(F)F)c(Cl)c2)NC(=O)CN(C)C(=O)[C@@H]1Cc1ccc(C(F)(F)F)cc1 [PP0308] ([NMeL]I[Aze][Sar][NPrPhe(4-CF3)][Sar][hPhe(3-Cl-4-CF3)][Pro(4-spirocPr)][Ac5c][NMeGly(cPent)][NMeD]-Morpholide; lactam N-11) | B (a compound having 3 or more and less than 10 is denoted as B) | B (a compound having 3 or more and less than 10 is denoted as B) |
